Experimental data: PubChem BioAssay (NCI)
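Protocol summary: plate cells (96-well), add compound at 5 concentrations, incubate 48 h, interpolate endpoints linearly. GI50 is the concentration that inhibits growth by half. TGI denotes the concentration required for complete inhibition of growth.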

Experiments:
Assay in all cases: NCI tumour cell line growth inhibition, 48 h
CCRF-CEM leukemia = tested on: CCRF-CEM leukemia
HS 578T breast = tested on: HS 578T breast
LOX IMVI melanoma = tested on: LOX IMVI melanoma
M14 melanoma = tested on: M14 melanoma
MCF7 breast = tested on: MCF7 breast
MDA-MB-231 breast = tested on: MDA-MB-231 breast
OVCAR-3 ovarian = tested on: OVCAR-3 ovarian
SK-OV-3 ovarian = tested on: SK-OV-3 ovarian
SR leukemia = tested on: SR leukemia
UACC-62 melanoma = tested on: UACC-62 melanoma

| Compound | TGI (CCRF-CEM leukemia) [µM] | TGI (HS 578T breast) [µM] | TGI (LOX IMVI melanoma) [µM] | TGI (M14 melanoma) [µM] | TGI (MCF7 breast) [µM] | TGI (MDA-MB-231 breast) [µM] | TGI (OVCAR-3 ovarian) [µM] | TGI (SK-OV-3 ovarian) [µM] | TGI (SR leukemia) [µM] | TGI (UACC-62 melanoma) [µM] | GI50 (CCRF-CEM leukemia) [nM] | GI50 (HS 578T breast) [nM] | GI50 (LOX IMVI melanoma) [nM] | GI50 (M14 melanoma) [µM] | GI50 (MCF7 breast) [nM] | GI50 (MDA-MB-231 breast) [µM] | GI50 (OVCAR-3 ovarian) [nM] | GI50 (SK-OV-3 ovarian) [nM] | GI50 (SR leukemia) [nM] | GI50 (UACC-62 melanoma) [nM] |
| --- | --- | --- | --- | --- | --- | --- | --- | --- | --- | --- | --- | --- | --- | --- | --- | --- | --- | --- | --- | --- |
| CCCOC(=O)C1C2CCC(O2)C1C(=O)O (centres undefined) | > 100 | > 100 | > 100 | > 100 | > 100 | > 100 | > 100 | > 100 | > 100 | > 100 | – | – | – | – | – | – | – | – | – | – |
| O=C(Nc1cccc(C(F)(F)F)c1)c1cc2ccccc2cc1O | > 100 | > 44 | 14.3 | 48.7 | > 43.6 | 7.08 | 6.1 | 6.32 | 12.3 | > 46.1 | 3670 | 1890 | 1920 | 3.26 | 708 | 2.08 | 783 | 1550 | 533 | 835 |
| Cc1cc2nc3c4ccc(Br)cc4n(CCN(C)C)c3nc2cc1C | 10.5 | 6.38 | 1.9 | 3.39 | 3.06 | 7.45 | 6.96 | 12.7 | 10 | 3.68 | 1500 | 2060 | 532 | 1.55 | 1170 | 1.97 | 2040 | 2650 | 423 | 1820 |
| COc1ccc(C(=O)c2cc3c(N)c(C(=O)Nc4cccc(OC)c4)sc3nc2C)cc1 | > 100 | > 100 | > 100 | > 100 | > 100 | > 100 | – | > 100 | – | > 100 | 363 | 546 | 676 | 0.341 | 420 | 1.47 | – | – | 203 | 594 |
| COc1cc(/C=N/NC(=O)c2ccccc2Nc2cccc(C(F)(F)F)c2)cc(OC)c1OC | 4.33 | 6.6 | 15.4 | 14.4 | 6.86 | 20.5 | 2.33 | 8.44 | 4.16 | 11.6 | 1030 | 971 | 4550 | 3.35 | 1570 | 6.33 | 797 | 2920 | 1300 | 3660 |
| COc1cc2c(cc1OCCCOc1ccc(-c3nc4ccc(N5CCN(C)CC5)cc4[nH]3)cc1)N=C[C@@H]1CCCN1C2=O | 2.33 | < 0.01 | 1.58 | < 0.01 | 5.12 | < 0.01 | < 0.01 | 22.8 | < 0.01 | < 0.0201 | < 10 | < 10 | < 10 | < 0.01 | < 10 | < 0.01 | < 10 | < 10 | < 10 | < 13.3 |
| C=CC(C)(O)CC/C=C(\CO)C(=O)OC1C(C)OC(O[C@](C)(C=C)CC/C=C(\CO)C(=O)O[C@H]2C[C@@]3(C(=O)OC4OC(CO)C(O)C(O)C4OC4OC(C)C(OC5OC(CO)C(O)C5O)C(OC5OC(CO)C(O)C(O)C5O)C4O)C(CC2(C)C)C2=CCC4[C@@]5(C)CC[C@H](OC6OC(COC7OC(C)C(O)C(O)C7OC7OCC(O)C(O)C7O)C(O)C(O)C6NC(C)=O)C(C)(C)C5CC[C@@]4(C)[C@]2(C)C[C@H]3O)C(O)C1O (some centres undefined) | 7.55 | 7.16 | 0.82 | 2.29 | 4.1 | 0.39 | 0.344 | 0.794 | 15.1 | 5.28 | 125 | 989 | 162 | 0.62 | 822 | 0.0722 | 94.7 | 203 | 1590 | 687 |
| Nc1nc(N)c2c(n1)NC(c1sc(Cl)nc1Cl)CC(c1ccc3c(c1)OCO3)=N2 (centres undefined) | 27 | 31.1 | 25.5 | 13.7 | 47.2 | 22.3 | 17.4 | 9.77 | 16.6 | 18.9 | 3020 | 2350 | 7020 | 2.01 | 2810 | 5.81 | 3940 | 2780 | 1900 | 2170 |
| CC(C)NC(=O)OCc1c(COC(=O)NC(C)C)c(-c2cc[n+](COC(=O)C3CCCCC3)cc2)n2c1CCC2 | > 100 | > 100 | > 100 | > 100 | > 100 | > 100 | > 100 | > 100 | > 100 | > 100 | – | – | – | – | – | – | – | – | – | – |
| CC(N1CCOCC1)C(O)(c1ccccc1)c1ccccn1 (centres undefined) | – | > 100 | > 100 | > 100 | > 100 | > 100 | > 100 | > 100 | > 100 | > 100 | – | – | – | – | – | – | – | – | – | – |
| COCCN1C(=O)C2c3[nH]c4ccccc4c3C3CCC(C(C)(C)C)CC3C2C1=O (centres undefined) | 87.2 | 38.8 | – | 38.1 | 43.3 | 36.9 | 33.8 | 42.7 | 27 | > 10 | – | – | – | – | – | – | – | – | – | – |
| O=Cc1ccc(N2CCN(c3ccc(C=O)cc3)CC2)cc1 | > 100 | > 100 | > 100 | > 100 | > 100 | > 100 | > 100 | > 100 | > 100 | > 100 | > 100000 | > 100000 | > 100000 | > 100 | 97700 | > 100 | > 100000 | > 100000 | > 100000 | 9360 |
| O=S(=O)(O)SCCNCCCCCC1CCCCC1 | > 100 | 36.2 | 4.78 | 18.4 | 7.32 | 30 | 11.2 | 31.2 | > 33.3 | 4.22 | – | – | – | – | – | – | – | – | – | – |
| Nc1c(C(=O)Nc2cccc3ccccc23)sc2nc3c(cc12)C(=O)CCC3 | > 100 | > 100 | > 100 | > 100 | > 100 | 6.92 | 0.696 | 7.65 | > 100 | > 75.8 | 290 | 226 | 554 | 0.24 | 206 | 0.379 | 229 | 173 | 380 | 166 |
| Cc1cc(Nc2nc(-c3ccncc3)nc3ccccc23)n[nH]1 | > 100 | 7.47 | > 100 | > 100 | > 100 | > 100 | > 100 | > 100 | 47.7 | – | 25200 | 1360 | 2690 | 10.3 | 8180 | 14.7 | 9260 | 3450 | 1720 | – |
| O=C(/C=C/c1cccc2ccccc12)Nc1ncc(Cc2ccccc2)s1 | > 100 | 5.34 | 11 | 3.79 | > 100 | > 40.3 | 3.22 | > 29.9 | > 100 | > 100 | 852 | 703 | 445 | 0.649 | 434 | 2 | 738 | 1710 | 866 | 437 |
| C/C(=N/O)c1ccc(Nc2cc(-n3ccnc3)c3ccccc3n2)cc1 | 1.99 | > 100 | – | > 100 | > 100 | 38.2 | 91.3 | > 100 | > 100 | > 100 | 126 | 12900 | – | 5.75 | 85300 | 8.81 | 22500 | > 100000 | 3780 | 27800 |
| Cc1cc2nc(-c3c(F)cccc3Cl)n(Cc3c(F)cccc3Cl)c2cc1C | > 100 | 48.4 | 30.2 | 26.7 | > 100 | 23.1 | – | 51.8 | > 100 | 19.3 | 2600 | 15800 | 13500 | 11.5 | 12800 | 10.4 | – | 19300 | 17500 | 6410 |
| COc1ccc2c(c1)/C(=N/OC(C)=O)c1c-2cnc2ccccc12 | > 100 | > 100 | 38.6 | > 100 | > 100 | 59.4 | – | > 100 | 38 | 36.3 | 28500 | 39800 | 19000 | 29.6 | 39700 | 22.1 | – | 40400 | 13800 | 16600 |
| H-QIYKKYRTWYRKAWKVLGKV-NH2 | > 100 | 8.51 | > 100 | 14.1 | – | 17.9 | 22.3 | 30.5 | > 100 | 4.74 | 4140 | 2570 | 23700 | 3.06 | – | 4.35 | 4300 | 11300 | 3580 | 2080 |
| CCN(CC)Cc1cc(Nc2c3ccccc3nc3cc(Cl)ccc23)ccc1O | > 100 | 6.24 | – | 3.18 | 2.46 | 3.59 | 3.28 | 3.86 | > 100 | 4 | 2590 | 2260 | – | 1.76 | 960 | 1.73 | 1740 | 2010 | 3080 | 2100 |
| COc1ccc(C2=Nc3c/c(=C\c4c(O)[nH]c5cc(Cl)ccc45)ccc3=N2)cc1 | 9.21 | 43.1 | – | 21.6 | 12.8 | 19.6 | 8.24 | 30.5 | 3.89 | 22.7 | 1410 | 10600 | – | 4.17 | 2420 | 5.23 | 2430 | 12400 | 1130 | 8950 |
| COC(=O)/C(=N\Nc1nnc(C)n1N)C(C#N)c1ccccc1 (centres undefined) | > 100 | > 100 | > 100 | > 100 | – | > 100 | > 100 | > 100 | > 100 | > 100 | – | – | – | – | – | – | – | – | – | – |
| Nc1ccn(C2OC(C(OC3OC(CO)C(O)C(N)C3O)C(O)C(O)C(O)C(O)CO)C(N)C(O)C2O)c(=O)n1 (centres undefined) | > 100 | 7.27 | > 100 | > 100 | > 100 | 41.1 | 86.6 | – | > 100 | > 100 | – | – | – | – | – | – | – | – | – | – |
| Oc1ccc(Cl)cc1/C=N\NC(=S)N/N=C/c1cc(Cl)ccc1O | 12.1 | > 100 | > 100 | – | > 100 | 27.6 | 11.7 | – | 40.9 | 7.57 | 468 | 8370 | 1650 | – | 3820 | 1.84 | 1870 | – | 1220 | 1740 |
| CCCN1CCC=C(c2ccc(Nc3nc(Nc4ccccc4C(N)=O)c4cc[nH]c4n3)c(C)c2)C1 | > 25 | > 25 | > 25 | > 25 | > 25 | > 25 | > 25 | > 25 | – | > 25 | 3320 | > 17800 | 1770 | 4.77 | 289 | > 16.6 | 17900 | 9680 | – | 14400 |
| N#C/C(=C\c1ccc2[nH]ccc2c1)C(=O)c1ccc(O)c(O)c1 | > 85 | > 100 | > 100 | > 100 | > 100 | – | 79.3 | > 100 | > 100 | > 100 | – | – | – | – | – | – | – | – | – | – |
| COc1ccc(-c2nc(C(=O)c3ccccc3)n(CC(=O)c3ccc(Cl)cc3)c2-c2ccc(OC)cc2)cc1 | > 100 | > 100 | > 100 | > 100 | > 100 | > 100 | > 100 | > 100 | – | > 100 | > 100000 | > 100000 | > 100000 | > 100 | > 100000 | > 100 | > 100000 | > 100000 | – | > 100000 |
